According to patent US12630547B2, “RAS protein degraders, pharmaceutical compositions thereof, and their therapeutic applications” (BioTheryX, Inc., priority 2019, dated 2026):

Legend:
Format in all cases: cell-based
H23 cells = experiment: Cell viability assay (CELLTITER-GLO), H23 cells; details: Table 4; 3 days
Procedure: (§1) MOLM-13 cells, MV-4-11 cells, H23, and H358 cells were independently cultured in RPMI 1640 media supplemented with 10% fetal bovine serum, streptomycin and penicillin. The cells were plated in white walled 96-well plates at 4,000 cells/well. The cells were incubated in DMSO (control) or a compound for 3 days at 37° C. under 5% CO2. A CELLTITER-GLO® reagent (100 μL) was then added to each well. After a 10 min incubation with shaking, luminescence was measured using an ENVISION® multimode plate reader.
(§2) IC50 values are summarized in Table 4, where “A” represents an IC50 value of no greater than 1 μM, “B” represents an IC50 value of greater than 1 μM and no greater than 5 μM, “C” represents an IC50 value of greater than 5 μM and no greater than 10 μM, and “D” represents an IC50 value of greater than 10 μM.

MOLM-13 cells = experiment: Cell viability assay (CELLTITER-GLO), MOLM-13 cells; details: Homo sapiens, MOLM-13, 72 h; Table 2; compound at 10 μM, 3 days; read-out: Effect on MOLM-13 cell viability (% DMSO)
Method in brief: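 MV-4-11 and MOLM-13 cells in RPMI 1640/10% FBS were seeded at 4,000 cells/well and exposed to compound (10 μM or 1 μM) or DMSO for 3 days at 37 °C, 5% CO2. CellTiter-Glo luminescence gave viability as % DMSO, binned into ranges A (<10%) through D (≥50%).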

H358 cells = experiment: Cell viability assay (CELLTITER-GLO), H358 cells; details: Table 4; 3 days
Procedure: as §1
In Tables 1 and 2, each compound was tested at 10 μM; and in Table 3, each compound was tested at 1 μM. In Tables 1 to 3, the cell viability values as % DMSO are reported as “A,” “B,” “C,” or “D;” where “A” represents a % viability value of less than 10%; “B” represents a % viability value of no less than 10% and less than 25%; “C” represents a % viability value of no less than 25% and less than 50%; and “D” represents a % viability value of no less than 50%. Compound A is
as §2

Row | Structure (SMILES) | Inhibition of H23 cells, IC50 (class) (H23 cells) | viability at 10 µM (MOLM-13 cells) | Inhibition of H358 cells, IC50 (class) (H358 cells)
1 | C=CC(=O)N1CCN(c2ncnc3c(F)c(-c4cc(OCCOCCOCCC(=O)NCCNc5cccc6c5CN(C5CCC(=O)NC5=O)C6=O)ccc4F)c(Cl)cc23)CC1 (stereo not drawn) [Compound 38, 3-(2-(2-(3-(4-(4-Acryloylpiperazin-1-yl)-6-chloro-8-fluoroquinazolin-7-yl)-4-fluorophenoxy)ethoxy)ethoxy)-N-(2-((2-(2,6-dioxopiperidin-3-yl)-1-oxoisoindolin-4-yl)amino)ethyl)propanamide] | D′ | ≥ 50% | D′
2 | C=CC(=O)N1CC(N2Cc3ccc(-c4cc(O)cc5ccccc45)cc3N(CCOCCOCCOCCNc3ccc4c(c3)C(=O)N(C3CCC(=O)NC3=O)C4=O)C2=O)C1 (stereo not drawn) [Compound 40, 5-((2-(2-(2-(2-(3-(1-Acryloylazetidin-3-yl)-7-(3-hydroxynaphthalen-1-yl)-2-oxo-3,4-dihydroquinazolin-1(2H)-yl)ethoxy)ethoxy)ethoxy)ethyl)amino)-2-(2,6-dioxopiperidin-3-yl)isoindoline-1,3-dione] | B′ | < 10% | B′
3 | O=C1CCC(N2Cc3c(cc(F)cc3C3CCN(CCCCCCCOc4cccc(F)c4-c4c(Cl)cc5c(N6CCN(C(=O)c7cnc[nH]7)CC6)ncnc5c4F)CC3)C2=O)C(=O)N1 (stereo not drawn) [Compound 41, 3-(4-(1-(7-(2-(4-(4-(1H-Imidazole-5-carbonyl)piperazin-1-yl)-6-chloro-8-fluoroquinazolin-7-yl)-3-fluorophenoxy)heptyl)piperidin-4-yl)-6-fluoro-1-oxoisoindolin-2-yl)piperidine-2,6-dione] | B′ | < 10% | B′
4 | CCC(=O)N1CCN(c2ncnc3c(F)c(-c4c(F)cccc4OCCOCCOCCOCCNc4cccc5c4C(=O)N(C4CCC(=O)NC4=O)C5=O)c(Cl)cc23)CC1 (stereo not drawn) [Compound 42, 4-((2-(2-(2-(2-(2-(6-Chloro-8-fluoro-4-(4-propionylpiperazin-1-yl)quinazolin-7-yl)-3-fluorophenoxy)ethoxy)ethoxy)ethoxy)ethyl)amino)-2-(2,6-dioxopiperidin-3-yl)isoindoline-1,3-dione] | D′ | ≥ 50% | D′
5 | C=C(Cl)C(=O)N1CCN(c2ncnc3c(F)c(-c4c(F)cccc4OCCCCCCCN4CCC(c5cc(F)cc6c5CN(C5CCC(=O)NC5=O)C6=O)CC4)c(Cl)cc23)CC1 (stereo not drawn) [Compound 43, 3-(4-(1-(7-(2-(6-Chloro-4-(4-(2-chloroacryloyl)piperazin-1-yl)-8-fluoroquinazolin-7-yl)-3-fluorophenoxy)heptyl)piperidin-4-yl)-6-fluoro-1-oxoisoindolin-2-yl)piperidine-2,6-dione] | A′ | < 10% | A′
6 | CCC(=O)N1CC(N2Cc3ccc(-c4cc(O)cc5ccccc45)cc3N(CCCCCCCN3CCC(c4cc(F)cc5c4CN(C4CCC(=O)NC4=O)C5=O)CC3)C2=O)C1 (stereo not drawn) [Compound 44, 3-(6-Fluoro-4-(1-(7-(7-(3-hydroxynaphthalen-1-yl)-2-oxo-3-(1-propionylazetidin-3-yl)-3,4-dihydroquinazolin-1(2H)-yl)heptyl)piperidin-4-yl)-1-oxoisoindolin-2-yl)piperidine-2,6-dione] | B′ | < 10% | C′
7 | C=CC(=O)N1CC(N2Cc3ccc(-c4cc(O)cc5ccccc45)cc3N(CCOCCOCCNc3cccc4c3C(=O)N(C3CCC(=O)NC3=O)C4=O)C2=O)C1 (stereo not drawn) [Compound 45, 4-((2-(2-(2-(3-(1-Acryloylazetidin-3-yl)-7-(3-hydroxynaphthalen-1-yl)-2-oxo-3,4-dihydroquinazolin-1(2H)-yl)ethoxy)ethoxy)ethyl)amino)-2-(2,6-dioxopiperidin-3-yl)isoindoline-1,3-dione] | B′ | ≥ 50% | C′
8 | CCC(=O)N1CC(N2Cc3ccc(-c4cc(O)cc5ccccc45)cc3N(CCNCCCCCCCN3CCC(c4cc(F)cc5c4CN(C4CCC(=O)NC4=O)C5=O)CC3)C2=O)C1 (stereo not drawn) [Compound 46, 3-(6-Fluoro-4-(1-(7-((2-(7-(3-hydroxynaphthalen-1-yl)-2-oxo-3-(1-propionylazetidin-3-yl)-3,4-dihydroquinazolin-1(2H)-yl)ethyl)amino)heptyl)piperidin-4-yl)-1-oxoisoindolin-2-yl)piperidine-2,6-dione] | D′ | ≥ 50% | D′
9 | C=CC(=O)N1C[C@H](C)N(c2nc(OCCOCCOCCOCCNc3cccc4c3C(=O)N(C3CCC(=O)NC3=O)C4=O)nc3c(F)c(-c4c(O)cccc4F)c(Cl)cc23)C[C@H]1C (stereo partly drawn) [Compound 58, 4-((2-(2-(2-(2-((4-((2S,5R)-4-Acryloyl-2,5-dimethylpiperazin-1-yl)-6-chloro-8-fluoro-7-(2-fluoro-6-hydroxyphenyl)quinazolin-2-yl)oxy)ethoxy)ethoxy)ethoxy)ethyl)amino)-2-(2,6-dioxopiperidin-3-yl)isoindoline-1,3-dione] | B′ | < 10% | B′
10 | CCS(=O)(=O)N1CCN(c2ncnc3c(F)c(-c4c(F)cccc4OCCCCCCCN4CCC(c5cc(F)cc6c5CN(C5CCC(=O)NC5=O)C6=O)CC4)c(Cl)cc23)CC1 (stereo not drawn) [Compound 59, 3-(4-(1-(7-(2-(6-Chloro-4-(4-(ethylsulfonyl)piperazin-1-yl)-8-fluoroquinazolin-7-yl)-3-fluorophenoxy)heptyl)piperidin-4-yl)-6-fluoro-1-oxoisoindolin-2-yl)piperidine-2,6-dione] | B′ | < 10% | B′
11 | CCC(=O)N1CCN(c2ncnc3c(F)c(-c4c(F)cccc4OCCCCCCCCCN4CCC(c5cc(F)cc6c5CN(C5CCC(=O)NC5=O)C6=O)CC4)c(Cl)cc23)CC1 (stereo not drawn) [Compound 61, 3-(4-(1-(9-(2-(6-Chloro-8-fluoro-4-(4-propionylpiperazin-1-yl)quinazolin-7-yl)-3-fluorophenoxy)nonyl)piperidin-4-yl)-6-fluoro-1-oxoisoindolin-2-yl)piperidine-2,6-dione] | B′ | < 10% | B′
12 | C=CC(=O)N1CCN(c2ncnc3c(F)c(-c4c(F)cccc4OCCCNCc4ccc(COc5cccc6c5CN([C@H]5CCC(=O)NC5=O)C6=O)cc4)c(Cl)cc23)CC1 [Compound 62, (3S)-3-(4-((4-(((3-(2-(4-(4-Acryloylpiperazin-1-yl)-6-chloro-8-fluoroquinazolin-7-yl)-3-fluorophenoxy)propyl)amino)methyl)benzyl)oxy)-1-oxoisoindolin-2-yl)piperidine-2,6-dione] | B′ | < 10% | B′
13 | CCC(=O)N1CCN(c2ncnc3c(F)c(-c4c(F)cccc4OCCCNCc4ccc(COc5cccc6c5CN([C@H]5CCC(=O)NC5=O)C6=O)cc4)c(Cl)cc23)CC1 [Compound 63, (3S)-3-(4-((4-(((3-(2-(6-Chloro-8-fluoro-4-(4-propionylpiperazin-1-yl)quinazolin-7-yl)-3-fluorophenoxy)propyl)amino)methyl)benzyl)oxy)-1-oxoisoindolin-2-yl)piperidine-2,6-dione] | C′ | 10 to 25% | C′
14 | C=CC(=O)N1C[C@@H]2C(=O)N(C)c3cnc4c(F)c(-c5c(F)cccc5OCCCCCCCN5CCC(c6cc(F)cc7c6CN(C6CCC(=O)NC6=O)C7=O)CC5)c(Cl)cc4c3N2C[C@H]1C (stereo partly drawn) [Compound 64, 3-(4-(1-(7-(2-((2R,4aR)-3-Acryloyl-11-chloro-9-fluoro-2,6-dimethyl-5-oxo-2,3,4,4a,5,6-hexahydro-1H-pyrazino[1′,2′:4,5]pyrazino[2,3-c]quinolin-10-yl)-3-fluorophenoxy)heptyl)piperidin-4-yl)-6-fluoro-1-oxoisoindolin-2-yl)piperidine-2,6-dione] | A′ | < 10% | B′
15 | CCC(=O)N1C[C@@H]2C(=O)N(C)c3cnc4c(F)c(-c5c(F)cccc5OCCCCCCCN5CCC(c6cc(F)cc7c6CN(C6CCC(=O)NC6=O)C7=O)CC5)c(Cl)cc4c3N2C[C@H]1C (stereo partly drawn) [Compound 65, 3-(4-(1-(7-(2-((2R,4aR)-11-Chloro-9-fluoro-2,6-dimethyl-5-oxo-3-propionyl-2,3,4,4a,5,6-hexahydro-1H-pyrazino[11′,2′:4,5]pyrazino[2,3-c]quinolin-10-yl)-3-fluorophenoxy)heptyl)piperidin-4-yl)-6-fluoro-1-oxoisoindolin-2-yl)piperidine-2,6-dione] | B′ | < 10% | B′
